The values that follow come from patent EP0234113A1, “2,3-Dihydro-1H-phenalene-2-amino compounds as anti-psychotic drugs” (THE UPJOHN COMPANY, priority 1985, dated 1987).

For orientation: ED50 means the dose at which the effect has come halfway, by size or by number of responders.

Structures can show the parent of a compound that is named as a salt.

The subject of one experiment is body temperature. As to the kind of experiment: Hypothermia Test (effect on body temperature). The format is in vivo, CF-1 male mice. The conditions noted are these: Mus musculus, ip, 0.75 h, read-out: hypothermia, calculated ED50. As for the experimental part:
The Effect on Body Temperature (Hypothermia) Test and the Antagonism of Apomorphone-Induced Case Climbing (ACC), (Apomorphine Gnawing Test) are described on page 1398 of the publication, Journal of Medicinal Chemistry, Vol. 22, No. 11, pp. 1390-1398, in an article entitled "6-Aryl-4H-s-triazolo[4,3-a][1,4]benzodiazepines....Action" by J. B. Hester, Jr., et al.
For the tests here, the Hypothermia Test procedure was run as follows:
A group of four CF-1 male mice (18-22 g each) was injected intraperitoneally with the test compound prepared in 0.25 percent w/v methylcellulose in water solution. After 45 min, abdominal temperature of each mouse was measured using a thermister probe. A control group of four mice was treated with vehicle only and the temperature of the control group was taken in a similar manner. A compound was considered to have a significant effect on body temperature if the mean temperature in the test compound treated group deviated more than 3.5°C from the mean temperature of the parallel control group. Stimulants tend to elevate temperatures; depressants tend to lower body temperature.
For `CCCN(CCC)C1Cc2cccc3cc(O)cc(c23)C1` (racemic) [(15), (±)2-(N,N-di-n-propylamino)-2,3-dihydro-lH-phenalen-5-ol], the ED50 is 1 mg/kg.

Still in this experiment, the particulars now being: either test: hypothermic or apomorphine antagonism.
As to `NC1Cc2cccc3c(Br)ccc(c23)C1` (stereo not drawn) [(27), 6-bromo-2,3-dihydro-lH-phenalen-2-ylamine hydrochloride], the “active in either the hypothermic or the apomorphine antogonism test” value is reported as “active”.

For the molecule `Brc1ccc2c3c(cccc13)CC(N1CCC1)C2` (stereo not drawn) [(12), 1-[6-bromo-2,3-dihydro-1H-phenalen-2-yl]azetidine], the “active in either the hypothermic or the apomorphine antogonism test” value was “active”.

Regarding “N-methyl-6-(2-methyl-l,3-dioxan-2-yl)-2,3-dihydro-lH-phena- len-2-amine [(5)]”, the “active in either the hypothermic or the apomorphine antogonism test” value was “active”.

Turning to `Cl.NC1Cc2cccc3cc(Cl)cc(c23)C1` (stereo not drawn) [(50), 5-chloro-2,3-dihydro-1H-phenalen-2-ylamine hydrochloride], the “active in either the hypothermic or the apomorphine antogonism test” value is “active”.

As for `CNC1Cc2cccc3c(C(=O)c4ccccc4)ccc(c23)C1` (stereo not drawn) [(20), [2-(N-methylamino)-2,3-dihydro-lH-phenalen-6-yl]phenone methanesulfonate salt], the “active in either the hypothermic or the apomorphine antogonism test” value is recorded as “active”.

For `CCCN(CCC)C1Cc2cccc3ccc(OC)c(c23)C1` (stereo not drawn) [(25), N,N-di-n-propyl-4-methoxy-2,3-dihydro-lH-phenalen-2-amine hydrochloride], the “active in either the hypothermic or the apomorphine antogonism test” value is “active”.

As to `CCCN(CCC)C1Cc2cccc3cc(O)cc(c23)C1.Cl` (racemic) [(16), (±)2-(N,N-di-n-propylamino)-2,3-dihydro-1H-phenalen-5-ol hydrochloride], the “active in either the hypothermic or the apomorphine antogonism test” value is “active”.

For `CCCN(CCC)C1Cc2cccc3cc(OC(=O)C(C)(C)C)cc(c23)C1` (stereo not drawn) [(44), 2-(N,N-di-n-propylamino)-2,3-dihydro-lH-phenalen-5-ol, 2,2-dimethylpropyl ester hydrochloride], the “active in either the hypothermic or the apomorphine antogonism test” value is “active”.

As for “N,N-dimethyl-4-methoxy-1H-phenalen-2-ylamine hydrochloride, 0.25 H20 hydrate [(30)]”, the “active in either the hypothermic or the apomorphine antogonism test” value is listed as “active”.

Regarding `CCCN(CCC)C1Cc2cccc3cc(O)cc(c23)C1` (racemic) [(15), (±)2-(N,N-di-n-propylamino)-2,3-dihydro-lH-phenalen-5-ol], the “active in either the hypothermic or the apomorphine antogonism test” value was “active”.

As for `CN(C)C1Cc2cccc3c(C(=O)c4ccccc4)ccc(c23)C1` (stereo not drawn) [(19), [2-(N,N-dimethylamino)-2,3-dihydro-1H-phenalen-6-yl]phenone maleate salt], the “active in either the hypothermic or the apomorphine antogonism test” value is recorded as “active”.

In the case of `CN(C)C1Cc2cccc3ccc(O)c(c23)C1` (stereo not drawn) [(36), 2-(N,N-dimethylamino)-2,3-dihydro-lH-phenalen-4-ol hydrobromide], the “active in either the hypothermic or the apomorphine antogonism test” value is recorded as “active”.

`CCCN(CCC)C1Cc2cccc3cccc(c23)C1` [(53), N,N-di-n-propyl-2,3-dihydro-lH-phenalen-2-amine hydrochloride]: the “active in either the hypothermic or the apomorphine antogonism test” value was “active”.

Take `CCCN(CCC)C1Cc2cccc3cc(OCc4ccccc4)cc(c23)C1` (stereo not drawn) [(18), [2-(N,N-di-n-propylamino)-2,3-dihydro-lH-phenalen-5-yl]-a-benzyl ether]: the “active in either the hypothermic or the apomorphine antogonism test” value is reported as “active”.

In the case of `COc1ccc2cccc3c2c1CC(N)C3` (stereo not drawn) [(24), 4-methoxy-2,3-dihydro-lH-phenalen-2-amine], the “active in either the hypothermic or the apomorphine antogonism test” value is on record as “active”.

As to `CN(C)C1Cc2cccc3cccc(c23)C1` [(7), N,N-dimethyl-2,3-dihydro-lH-phenalen-2-amine hydrochloride], the “active in either the hypothermic or the apomorphine antogonism test” value is “active”.

Turning to `CCCN(CCC)C1Cc2cccc3c(Br)ccc(c23)C1` (stereo not drawn) [(4)], the “active in either the hypothermic or the apomorphine antogonism test” value was “active”.

`CN(C)C1Cc2cccc3c(Br)ccc(c23)C1` (stereo not drawn) [(2), 6-Bromo-N,N-dimethyl-2,3-dihydro-lH-phenalen-2-amine hydrochloride]: the “active in either the hypothermic or the apomorphine antogonism test” value is “active”.

With “N,N-dimethyl-6-(2-methyl-l,3-dioxan-2-yl)-2,3-dihydro-lH- phenalen-2-amine [(8)]”, the “active in either the hypothermic or the apomorphine antogonism test” value was “active”.

`CCCN(CCC)C1Cc2cccc3c(O)ccc(c23)C1` (stereo not drawn) [(9), 2-(N,N-di-n-propylamino)-2,3-dihydro-lH-phenalen-6-ol hydrochloride]: the “active in either the hypothermic or the apomorphine antogonism test” value is listed as “active”.

As for “1-[2-(N,N-dimethylamino)-2,3-dihydro-1H-phenalen-y-yl]-ethan-1-ol hydrochloride [(10)]”, the “active in either the hypothermic or the apomorphine antogonism test” value is listed as “active”.

Take “5-[2-(N,N-dimethylamino)-2,3-dihydro-1H-phenalen-2-yl]azetidine hydrochloride [(13)]”: the “active in either the hypothermic or the apomorphine antogonism test” value is reported as “active”.

On to `Brc1ccc2c3c(cccc13)CC(N1CCCCC1)C2` (stereo not drawn) [(29), 1-[6-bromo-2,3-dihydro-1H-phenalen-2-yl]piperadine], for which the “active in either the hypothermic or the apomorphine antogonism test” value is on record as “active”.

On to `CN(C)C1Cc2cccc3c(O)ccc(c23)C1` (stereo not drawn) [(3), 2-(N,N-dimethylamino-2,3-dihydro-lH-phenalen-6-ol hydrochloride], for which the “active in either the hypothermic or the apomorphine antogonism test” value was “active”.

As for `CN(C)C1Cc2cccc3c(OCc4ccccc4)ccc(c23)C1` (stereo not drawn) [(22), [2-(N,N-dimethylamino)-2,3-dihydro-1H-phenalen-6-yl]benzyl ether hydrochloride], the “active in either the hypothermic or the apomorphine antogonism test” value is “active”.

As for `CCCNC1Cc2cccc3cccc(c23)C1` [(56), N-n-propyl-2,3-dihydro-lH-phenalen-2-amine hydrochloride], the “active in either the hypothermic or the apomorphine antogonism test” value is reported as “active”.

On to `CCCCCCC(=O)Oc1cc2c3c(cccc3c1)CC(N(CCC)CCC)C2` (stereo not drawn) [(46), [2-(N,N-di-n-propylamino)-2,3-dihydro-1H-phenalen-5-yl]heptanoate ester hydrochloride], for which the “active in either the hypothermic or the apomorphine antogonism test” value is “active”.

Turning to `CCCN(CCC)C1Cc2cccc3cc(O)cc(c23)C1` (racemic) [(17), (±)2-(N,N-di-n-propylamino)-2,3-dihydro-lH-phenalen-5-ol hydrobromide salt], the “active in either the hypothermic or the apomorphine antogonism test” value is “active”.

For the molecule `CCCN(CCC)C1Cc2cccc3cc(O)cc(c23)C1` (single isomer, unassigned; (-)) [(34), (-)-2-(N,N-di-n-propylamino)-2,3-dihydro-lH-phenalen-5-ol hydrobromide], the “active in either the hypothermic or the apomorphine antogonism test” value is “active”.

For “[2-amino-2,3-dihydro-lH-phenalen-6-yl]-a-benzyl ether maleate salt [(49)]”, the “active in either the hypothermic or the apomorphine antogonism test” value is “active”.

Turning to `CNC1Cc2cccc3c(OCc4ccccc4)ccc(c23)C1` (stereo not drawn) [(21), [2-(N-methylamino)-2,3-dihydro-lH-phenalen-6-yl]benzyl ether, p-toluene sulfonate salt], the “active in either the hypothermic or the apomorphine antogonism test” value was “active”.

In the case of `Brc1ccc2c3c(cccc13)CC(N1CCCC1)C2` (stereo not drawn) [(26), 1-[6-bromo-2,3-dihydro-lH-phenalen-2-yl]pyrrolidine], the “active in either the hypothermic or the apomorphine antogonism test” value is given as “active”.

Consider `CNC1Cc2cccc3c(OCc4ccccc4)ccc(c23)C1` (stereo not drawn) [(41), [2-(N-methylamino)-2,3-dihydro-1H-phenalen-6-yi]-α-benzyl-ether p-toluenesulfonate salt monohydrate], for which the “active in either the hypothermic or the apomorphine antogonism test” value is recorded as “active”.

Regarding `CCCN(CCC)C1Cc2cccc3cc(OC(=O)c4ccccc4)cc(c23)C1` (stereo not drawn) [(45), [2-(N,N-di-n-propylamino)-2,3-dihydro-lH-phenalen-5-yl]benzoate ester hydrochloride], the “active in either the hypothermic or the apomorphine antogonism test” value is “active”.

On to `COc1ccc2cccc3c2c1CC(N(C)C)C3` (stereo not drawn) [(35), N,N-dimethyl-4-methoxy-2 ,3-dihydro-lH-phenalen-2-ylamine hydrochloride], for which the “active in either the hypothermic or the apomorphine antogonism test” value is listed as “active”.

In the case of `NC1Cc2cccc3cc(OCc4ccccc4)cc(c23)C1` (stereo not drawn) [(38), [2-amino-2,3-dihydro-lH-phenalen-5-yl]-a-benzyl ether hydrochloride], the “active in either the hypothermic or the apomorphine antogonism test” value is on record as “active”.

In the case of `CCCN(CCC)C1Cc2cccc3ccc(O)c(c23)C1` (stereo not drawn) [(28), 2-(N,N-di-n-propylamino)-2,3-dihydro-1H-phenalen-4-ol hydrobromide], the “active in either the hypothermic or the apomorphine antogonism test” value was “active”.

As for `CCCN(CCC)C1Cc2cccc3cc(OC(C)=O)cc(c23)C1` (stereo not drawn) [(37), [2-(N,N-di-n-propylamino)-2,3-dihydro-lH-phenalen-5-yl]acetate ester], the “active in either the hypothermic or the apomorphine antogonism test” value was “active”.

With `COc1ccc2cccc3c2c1CC(N(C)C)C3` (stereo not drawn) [(31), N,N-dimethyl-4-methoxy-2,3-dihydro-lH-phenalen-2-ylamine maleate salt], the “active in either the hypothermic or the apomorphine antogonism test” value was “active”.

As for “6-chloro-N,N-di-n-propyl-2,3-dihydro-lH-phenalen-2-ylamine hydrochloride [(51)]”, the “active in either the hypothermic or the apomorphine antogonism test” value is “active”.

For the molecule `CCN(CC)C1Cc2cccc3cccc(c23)C1` [(55), N,N-diethyl-2,3-dihydro-lH-phenalen-2-amine hydrochloride, 0.25 H2O hydrate], the “active in either the hypothermic or the apomorphine antogonism test” value is recorded as “active”.
